Laboratory results from patent US12098145B2 (Libra Therapeutics, Inc., priority 2022, dated 2024).

Each compound was assayed against T1, TRPML1 (Homo sapiens, UniProt Q9GZU1) (assay: Cellular TRPML1 assay (FLIPR, GCaMP6f calcium read-out)). Conditions: HEKT-REx/GCaMP6f/TRPML1 cells, FLIPR TETRA, kinetic response over 300 seconds; read-out: TRPML1 FLIPR pEC50 (converted).
T1 construct: expressed in transfected cells; host or cells: HEK T-REx cells stably expressing GCaMP6f and TRPML1
Assay type: cell-based
In short: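 HEK T-REx cells stably expressing TRPML1 and GCaMP6f, seeded 24 h before in Optimem + 0.5% FBS. After ~10 min pre-incubation at room temperature, compounds in Ca2+-free Tyrode's buffer were injected on FLIPR Tetra (final DMSO 0.5%). Calcium fluorescence kinetics followed for 300 s.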

T1 sequence (Q9GZU1 whole entry): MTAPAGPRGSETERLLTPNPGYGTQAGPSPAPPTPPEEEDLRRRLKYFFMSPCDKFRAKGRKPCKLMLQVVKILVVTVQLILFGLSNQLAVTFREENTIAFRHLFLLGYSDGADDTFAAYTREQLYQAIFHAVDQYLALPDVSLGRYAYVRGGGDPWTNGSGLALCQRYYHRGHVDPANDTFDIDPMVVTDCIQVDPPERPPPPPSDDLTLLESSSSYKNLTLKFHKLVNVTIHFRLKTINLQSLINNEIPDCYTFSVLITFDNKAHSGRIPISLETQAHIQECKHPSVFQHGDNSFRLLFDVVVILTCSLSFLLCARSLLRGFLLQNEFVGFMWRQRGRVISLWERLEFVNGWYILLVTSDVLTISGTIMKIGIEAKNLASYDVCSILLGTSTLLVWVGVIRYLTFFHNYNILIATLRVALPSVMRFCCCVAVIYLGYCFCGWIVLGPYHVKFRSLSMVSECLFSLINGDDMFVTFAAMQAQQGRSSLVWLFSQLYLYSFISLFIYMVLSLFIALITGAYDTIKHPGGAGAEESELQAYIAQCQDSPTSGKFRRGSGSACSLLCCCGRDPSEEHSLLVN

EC50 [µM] | SMILES
0.01 to 1 | CCC1(CC)CN(c2nc(C(=O)Nc3cc(F)c(N4CCCCC4)c(F)c3)c(CC(F)(F)F)o2)C1 [Example 215, 2-(3,3-diethylazetidin-1-yl)-N-(3,5-difluoro-4-(piperidin-1-yl)phenyl)-5-(2,2,2-trifluoroethyl)oxazole-4-carboxamide]
0.01 to 1 | O=C(Nc1cc(F)c(OC2CC3C[C@H]3C2)c(F)c1)c1nc(N2CCC3(COC3)C2)oc1CC(F)(F)F (stereo partly drawn) [Example 35, N-(4-{cis-bicyclo[3.1.0]hexan-3-yloxy}-3,5-difluorophenyl)-2-{2-oxa-6-azaspiro[3.4]octan-6-yl}-5-(2,2,2-trifluoroethyl)oxazole-4-carboxamide]
1 to 10 | CCc1oc(N2CC(C)(OC)C2)nc1C(=O)Nc1ccc(O[C@@H]2C[C@@H]3C[C@@H]3C2)c(C)c1 [Example 248, N-(4-(cis-bicyclo[3.1.0]hexan-3-yloxy)-3-methylphenyl)-5-ethyl-2-(3-methoxy-3-methylazetidin-1-yl)oxazole-4-carboxamide]
0.01 to 1 | O=C(Nc1cc(F)c(OC2CC3C[C@H]3C2)c(F)c1)c1nc(N2CC3CCCC3C2)oc1CC(F)(F)F (stereo partly drawn) [Example 40, N-(4-{cis-bicyclo[3.1.0]hexan-3-yloxy}-3,5-difluorophenyl)-2-{octahydrocyclopenta[c]pyrrol-2-yl}-5-(2,2,2-trifluoroethyl)oxazole-4-carboxamide]

Second part, the compound before the results:

SMILES | EC50 [µM]
Cc1cc(NC(=O)c2nc(N3CCCC3)oc2CC(F)(F)F)cc(F)c1NC1C2CCCC1CC2 (centres unmarked) [Example 194, N-(4-(bicyclo[3.2.1]octan-8-ylamino)-3-fluoro-5-methylphenyl)-2-(pyrrolidin-1-yl)-5-(2,2,2-trifluoroethyl)oxazole-4-carboxamide] | 10 to 100
COC1(C)CN(c2nc(C(=O)Nc3cc(O)c(O[C@@H]4C[C@@H]5C[C@@H]5C4)c(F)c3)c(CC(F)(F)F)o2)C1 [Example 267, N-(4-(cis-bicyclo[3.1.0]hexan-3-yloxy)-3-fluoro-5-hydroxyphenyl)-2-(3-methoxy-3-methylazetidin-1-yl)-5-(2,2,2-trifluoroethyl)oxazole-4-carboxamide] | 1 to 10
O=C(Nc1ccc(OC2CCCC2(F)F)c(F)c1)c1nc(N2CCCC23CC3)oc1CC(F)(F)F (centres unmarked) [Example 11, N-(4-((2,2-difluorocyclopentyl)oxy)-3-fluorophenyl)-2-(4-azaspiro[2.4]heptan-4-yl)-5-(2,2,2-trifluoroethyl)oxazole-4-carboxamide] | 1 to 10
COCCN(CC(C)C)c1nc(C(=O)Nc2cc(F)c(O[C@@H]3C[C@@H]4C[C@@H]4C3)c(F)c2)c(CC(F)(F)F)o1 [Example 147, N-(4-(cis-bicyclo[3.1.0]hexan-3-yloxy)-3,5-difluorophenyl)-2-(isobutyl(2-methoxyethyl)amino)-5-(2,2,2-trifluoroethyl)oxazole-4-carboxamide] | 1 to 10
CCc1oc(N2CC(CC)(CC)C2)nc1C(=O)Nc1cc(F)c(O[C@@H]2C[C@@H]3C[C@@H]3C2)c(F)c1 [Example 243, N-(4-(cis-bicyclo[3.1.0]hexan-3-yloxy)-3,5-difluorophenyl)-2-(3,3-diethylazetidin-1-yl)-5-ethyloxazole-4-carboxamide] | 0.01 to 1
CCCN(CCOC)c1nc(C(=O)Nc2cc(F)c(O[C@@H]3C[C@@H]4C[C@@H]4C3)c(F)c2)c(CC(F)(F)F)o1 [Example 152, N-(4-(cis-bicyclo[3.1.0]hexan-3-yloxy)-3,5-difluorophenyl)-2-((2-methoxyethyl)(propyl)amino)-5-(2,2,2-trifluoroethyl)oxazole-4-carboxamide] | 10 to 100
O=C(Nc1ccc(O[C@H]2COCC2(F)F)c(F)c1)c1nc(N2CCCC2)oc1CC(F)(F)F [Example 69, (S)—N-(4-((4,4-difluorotetrahydrofuran-3-yl)oxy)-3-fluorophenyl)-2-(pyrrolidin-1-yl)-5-(2,2,2-trifluoroethyl)oxazole-4-carboxamide] | 0.01 to 1
